Measurements as given in US9399145B2, “Nanoscale neuromodulating platform for retina neuron activation apparatus and method” (The Board of Trustees of the University of Illinois, priority 2005, dated 2016).

How the values were obtained:
α1β3γ2 GABAAR = target: T1, α1β3γ2 GABAAR (UniProt P28472+P62813); assay: Two-electrode voltage clamp of α1β3γ2 GABAAR-expressing oocytes; assay type: cell-based; conditions: 1 μM trans-MPC088 with 1 μM GABA (~EC3)
T1 construct: expressed in transfected cells; host or cells: Xenopus oocytes
T1 sequence (P62813 28-455): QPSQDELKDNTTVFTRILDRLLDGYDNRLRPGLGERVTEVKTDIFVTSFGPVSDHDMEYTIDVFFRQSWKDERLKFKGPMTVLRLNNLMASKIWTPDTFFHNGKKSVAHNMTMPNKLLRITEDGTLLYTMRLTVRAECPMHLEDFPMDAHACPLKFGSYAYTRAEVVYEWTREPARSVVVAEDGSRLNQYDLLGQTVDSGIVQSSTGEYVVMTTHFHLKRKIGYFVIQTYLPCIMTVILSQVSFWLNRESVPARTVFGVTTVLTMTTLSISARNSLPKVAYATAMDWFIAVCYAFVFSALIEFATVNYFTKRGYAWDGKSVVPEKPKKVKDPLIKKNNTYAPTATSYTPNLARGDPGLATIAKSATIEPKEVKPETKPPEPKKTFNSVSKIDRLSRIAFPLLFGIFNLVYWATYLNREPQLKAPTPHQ
T1 sequence (P28472 26-473): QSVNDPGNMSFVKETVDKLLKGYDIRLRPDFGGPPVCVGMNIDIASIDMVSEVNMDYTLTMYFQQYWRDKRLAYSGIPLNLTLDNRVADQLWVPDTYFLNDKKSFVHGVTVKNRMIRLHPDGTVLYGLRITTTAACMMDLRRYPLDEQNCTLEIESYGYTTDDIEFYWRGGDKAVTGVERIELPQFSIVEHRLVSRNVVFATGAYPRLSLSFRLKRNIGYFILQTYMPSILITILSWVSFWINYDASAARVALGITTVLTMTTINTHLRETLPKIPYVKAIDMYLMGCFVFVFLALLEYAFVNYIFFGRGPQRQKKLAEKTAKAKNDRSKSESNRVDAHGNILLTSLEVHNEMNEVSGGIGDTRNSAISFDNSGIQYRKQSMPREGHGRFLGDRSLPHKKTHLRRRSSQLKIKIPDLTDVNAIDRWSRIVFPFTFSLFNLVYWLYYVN
T1 sequence (P18507 40-467 isoform P18507-1 partner limits assumed): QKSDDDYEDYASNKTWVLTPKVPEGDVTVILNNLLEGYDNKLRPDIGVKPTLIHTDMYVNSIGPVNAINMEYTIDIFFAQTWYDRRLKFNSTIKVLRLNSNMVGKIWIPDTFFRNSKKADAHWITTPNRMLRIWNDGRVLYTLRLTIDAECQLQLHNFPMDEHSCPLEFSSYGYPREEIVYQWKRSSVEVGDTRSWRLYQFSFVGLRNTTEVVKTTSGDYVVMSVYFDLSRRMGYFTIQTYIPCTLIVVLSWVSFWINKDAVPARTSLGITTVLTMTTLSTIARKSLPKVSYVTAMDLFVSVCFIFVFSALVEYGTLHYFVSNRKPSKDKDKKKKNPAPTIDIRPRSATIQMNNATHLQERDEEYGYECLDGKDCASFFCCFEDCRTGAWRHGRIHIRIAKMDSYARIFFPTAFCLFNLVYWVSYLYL
Excerpt: Propofol is known to modulate GABAA receptors that contain a β subunit. […] Data in each group was obtained from 4 oocytes. […] Aggregate concentration-response data was also obtained from α1β3γ2 (squares) and α4β3δ (circles) receptors with trans-dominant MPC088 alone (FIG. 37b). Data was similarly normalized to the saturating GABA response obtained from each oocyte. Results for α1β2γ2 GABAARs in a and b (triangles) were reproduced from those of FIGS. 35c and 36b, respectively.
The activity of trans-dominant MPC088 was also tested at receptors containing the β-subunit substitution N265M, a mutation that markedly reduces the action of propofol both in vitro and in vivo (Jurd et al. (2003); Siegwart et al. (2002)). […] For each receptor type, illustrated responses are representative data obtained from a single oocyte.

[1] = tested on: GABAARs of isolated bipolar cells of rat retina; assay: Whole-cell recording of isolated retinal bipolar cells; assay type: cell-based
Excerpt: Data obtained with trans-MPC088 indicated substantial GABAAR potentiating activity by trans-MPC088 (FIG. 61).

[2] = Spectrophotometric and NMR analysis of photoisomerization; assay type: physicochemical
Method: UV and visible light sources of the electrophysiological apparatus were used for the spectrophotometric and NMR experiments. MPC088 samples were analyzed as DMSO solutions in a quartz cuvette (spectrophotometry) and a DMSO-d6 solution in a quartz NMR tube.
To test the stability of cis-MPC088 in darkness, a preparation of 30 μM MPC088 in oocyte Ringer solution that had been converted to predominantly cis form by a 5-min UV illumination was spectrophotometrically analyzed. The sample was subsequently kept in darkness at room temperature.
The UV-induced decrease in membrane current was analyzed by fitting a simple exponential decay function to the waveforms obtained and determining the exponential time constant (τ).

[3] = tested on: AMPAR/NMDAR-mediated EPSCs; assay: AMPAR/NMDAR-mediated EPSCs in hippocampal CA1 pyramidal neurons; assay type: cell-based, mouse
Method: To test whether MPC088 affects excitatory synaptic transmission, whole-cell voltage-clamp recordings were carried out in CA1 pyramidal neurons of mouse hippocampus. As in the experiments of FIG. 42, these recordings were obtained with perfusion of the slice with cis-dominant MPC088 (30 μM) under recirculation. PTX […] was also included in the external solution to block GABAARs. EPSCs were evoked by stimulating the Schaffer collaterals with a bipolar matrix microelectrode (FHC, Inc., Bowdoin, Me.), and recorded at a holding potential of +40 mV to uncover the NMDA receptor (NMDAR) component of the EPSC. Paired electrical stimuli separated by 80 ms were also presented to assess possible effects of MPC088 on short-term plasticity. Each cell was […] 20 interleaved trials in which the cell was exposed to two 0.1-s UV pulses surrounding a 1-s period of either blue light or no light (FIG. 50). […] Each trace is the average of 10 traces with stimulus and shutter artifacts blanked for clarity. The black and grey asterisks indicate the time points, respectively, for the current measurements of the AMPAR- and NMDAR-mediated components. FIG. 50b depicts summary data including that shown in a. Plotted for the blue light and no blue light conditions are the average current amplitudes measured at the peak of the first EPSC (black bars), and just prior to the second stimulus (grey bars), as indicated by the asterisks in a.
To quantify the effects of MPC088 on AMPA receptors (AMPARs) and NMDARs, for the first EPSC of the pair, the peak current and the current just prior to the second stimulus were measured, which reflect AMPAR and NMDAR components, respectively, of the EPSC^41. […] Additionally, blue light had no significant effect on the decay of the compound current (average τ from single-exponential fitting to the decay of the second EPSC: Blue off, 131±11 ms; Blue on, 131±11 ms; p=0.89). There was also no significant effect of blue light on the paired-pulse ratio (PPR, measured as Peak(2nd EPSC)/Peak(1st EPSC): Blue off, 1.72±0.07; Blue on, 1.85±0.14; p=0.34).
Recordings from hippocampal CA1 pyramidal neurons were obtained from 17-23 day old animals. Briefly, the hippocampus was completely removed from the brain and then sliced in 300-μm sections. Prior to recording, a cut was made with a scalpel blade between CA1 and CA3 in order to completely sever all connections between the two; this was done in order to abolish polysynaptic activity due to antidromic activation of CA3 pyramidal cells. Recordings were carried out under voltage clamp with an internal solution containing (in mM): 130 CsCl, 10 HEPES, 1 CaCl2, 2 ATP, 0.2 GTP, 10 EGTA, and 5 QX-314 Br, and pH was adjusted to 7.3 with CsOH. All data from these experiments are presented as mean±SEM.

[4] = 2.0 mM in DMSO-d6, before illumination
[5] = after UV illumination for 5 min
[6] = after UV, then visible light for 10 min

response enhancement (α1β3γ2 GABAAR): 4.4±1.3 fold
cis-isomer content (1H NMR) [2, 4]: 6%
trans-isomer content (1H NMR) [2, 4]: 94%
time constant of absorbance change at 338 nm ([2]; UV light, nominal intensity): 1.7 ± 0.3 s
cis-isomer content (1H NMR) [2, 5]: 91%
trans-isomer content (1H NMR) [2, 5]: 9%
cis-isomer content (1H NMR) [2, 6]: 19%
trans-isomer content (1H NMR) [2, 6]: 81%
time constant of absorbance change at 338 nm ([2]; reduced-intensity UV light (10% of nominal)): 22 ± 3 s
time constant of absorbance change at 338 nm ([2]; visible light): 36 ± 2 s
SMILES: CC(C)c1cc(CCCC(=O)NCc2ccc(/N=N/c3ccc(C(=O)NCCN)cc3)cc2)cc(C(C)C)c1O [MPC088, (E)-N-(2-Aminoethyl)-4-((4-((4-(4-hydroxy-3,5-diisopropylphenyl)butanamido)methyl)phenyl)diazenyl)benzamide]
potentiating factor (peak amplitude relative to the 10 μM GABA response) ([1]; 5 μM with 10 μM GABA and 100 μM TPMPA): 1.73±0.01
potentiating factor (peak amplitude relative to the 10 μM GABA response) ([1]; 15 μM with 10 μM GABA and 100 μM TPMPA): 3.26±0.42
actions on AMPAR-mediated and NMDAR-mediated EPSCs ([3]; 30 μM): negligible actions on AMPAR-mediated and NMDAR-mediated EPSCs
average τ of decay of the second EPSC ([3]; 30 μM MPC088, Blue off): 131 ± 11 ms
paired-pulse ratio (PPR) ([3]; 30 μM MPC088, Blue off): 1.72±0.07
average τ of decay of the second EPSC ([3]; 30 μM MPC088, Blue on): 131 ± 11 ms
paired-pulse ratio (PPR) ([3]; 30 μM MPC088, Blue on): 1.85±0.14
